From paper PMC7083851, “Extended pharmacodynamic responses observed upon PROTAC-mediated degradation of RIPK2” (Communications Biology, 2020)
Where “and” joins values, the source holds several entries; their conditions need not be identical. Identical values can stand only once.

Legend:
Rat intravenous PK = type: in vivo
Description: Rats (n = 3) received a single intravenous (IV) bolus administration (1 mg/kg, 4 mL/kg, n = 3 rats) formulated as a solution in saline with the pH adjusted to 4.0.
Aliquots of diluted whole blood (50:50) were analysed using quantitative high-performance liquid chromatography with tandem mass spectrometric detection (LC/MS/MS) following protein precipitation. […] PK parameters were generated following non-compartmental analysis (Phoenix® WinNonlin® (Certara, L.P., St. Louis, MO)) of the resulting concentration-time data.

cIAP2 = target: T1, cIAP2 (Homo sapiens, UniProt Q13489); assay: cIAP2 levels in human PBMCs, 24 h, capillary immunoassay; type: cell-based; settings: up to 1uM
T1 construct: endogenous in cells; host or cells: primary human PBMCs
T1 sequence (Q13489 whole entry): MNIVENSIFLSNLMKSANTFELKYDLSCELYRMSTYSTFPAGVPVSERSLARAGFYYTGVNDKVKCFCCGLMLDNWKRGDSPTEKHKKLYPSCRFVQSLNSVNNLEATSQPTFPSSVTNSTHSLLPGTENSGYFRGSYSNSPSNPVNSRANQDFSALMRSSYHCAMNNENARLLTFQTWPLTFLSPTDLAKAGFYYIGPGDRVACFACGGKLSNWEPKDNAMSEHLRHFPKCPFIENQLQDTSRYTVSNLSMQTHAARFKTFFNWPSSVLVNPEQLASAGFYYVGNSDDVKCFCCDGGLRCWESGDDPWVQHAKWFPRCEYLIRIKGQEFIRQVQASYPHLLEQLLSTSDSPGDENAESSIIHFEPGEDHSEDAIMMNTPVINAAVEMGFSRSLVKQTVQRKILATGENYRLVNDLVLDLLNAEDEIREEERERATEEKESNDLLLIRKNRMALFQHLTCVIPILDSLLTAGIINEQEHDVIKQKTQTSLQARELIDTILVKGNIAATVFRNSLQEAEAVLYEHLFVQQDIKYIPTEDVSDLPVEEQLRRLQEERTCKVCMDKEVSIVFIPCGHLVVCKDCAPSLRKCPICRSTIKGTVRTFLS
Description: (§1) Where the assessment of cytokines was performed, L18-MDP was added to the cell culture media (1 μg/ml) or to the rat blood samples (100 ng/ml) and samples were incubated for up to 4 h. For human blood, 250 ng/ml MDP (Invivogen) was added following compound treatment and the samples were further incubated for 5 h. Samples were them spun down at 1000 g and the cell culture supernatant, plasma or serum were collected for cytokines assessment, while cell pellets were used for RIPK2 and/or cIAP1, cIAP2, and XIAP levels analysis via immunoblotting.
(§2) Simple Western immunoassay: Cell lysates were mixed with 5× concentrated master mix (Protein Simple) and denatured at 95 °C on a heat block for 5 min together with the provided ladder (Protein Simple). Antibodies were diluted in the provided buffer as following: anti-RIPK2 (1:10 or 1:50), anti-cIAP1(1:10), anti-cIAP2 (1:10), anti-XIAP (1:10), mouse anti-β-actin (Abcam - 1:1000), rabbit anti-β-actin (Abcam - 1:50) and anti-vinculin (1:100). […] All samples were analyzed using the associated Compass software 3.1.7. […]
(§3) Cell viability was assessed by using Cell Titer
(§4) Kit (Promega) according to the manufacturer’s instructions. Samples were analysed using […]

XIAP = target: T2, XIAP (Homo sapiens, UniProt P98170); assay: XIAP levels in human PBMCs, 24 h, capillary immunoassay; type: cell-based; settings: up to 1uM
T2 construct: endogenous in cells; host or cells: primary human PBMCs
T2 sequence (P98170 whole entry): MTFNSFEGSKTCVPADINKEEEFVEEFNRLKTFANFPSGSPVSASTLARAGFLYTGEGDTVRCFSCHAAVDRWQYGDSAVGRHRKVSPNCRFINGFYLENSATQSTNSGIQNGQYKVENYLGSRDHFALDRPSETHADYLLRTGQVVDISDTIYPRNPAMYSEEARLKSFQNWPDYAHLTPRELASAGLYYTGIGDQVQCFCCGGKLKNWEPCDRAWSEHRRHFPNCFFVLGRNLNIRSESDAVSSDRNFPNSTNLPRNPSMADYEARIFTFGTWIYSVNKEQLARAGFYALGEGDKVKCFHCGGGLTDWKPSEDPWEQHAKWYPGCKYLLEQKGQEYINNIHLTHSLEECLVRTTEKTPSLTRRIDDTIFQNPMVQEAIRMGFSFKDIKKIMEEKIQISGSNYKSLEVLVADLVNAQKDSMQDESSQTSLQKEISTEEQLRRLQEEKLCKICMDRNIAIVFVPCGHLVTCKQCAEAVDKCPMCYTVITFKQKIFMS
Description: as §1, §2, §3, §4

RIPK2 = target: T3, RIPK2 (Rattus norvegicus, UniProt G3V783); assay: RIPK2 levels in colon of dosed rats (Western blot); type: in vivo; settings: for RIPK2 level in colon (fig 5f): vehicle control 0.0136-0.0240
T3 construct: from tissue; host or cells: terminal colon samples of dosed rats
T3 sequence (G3V783 1-539): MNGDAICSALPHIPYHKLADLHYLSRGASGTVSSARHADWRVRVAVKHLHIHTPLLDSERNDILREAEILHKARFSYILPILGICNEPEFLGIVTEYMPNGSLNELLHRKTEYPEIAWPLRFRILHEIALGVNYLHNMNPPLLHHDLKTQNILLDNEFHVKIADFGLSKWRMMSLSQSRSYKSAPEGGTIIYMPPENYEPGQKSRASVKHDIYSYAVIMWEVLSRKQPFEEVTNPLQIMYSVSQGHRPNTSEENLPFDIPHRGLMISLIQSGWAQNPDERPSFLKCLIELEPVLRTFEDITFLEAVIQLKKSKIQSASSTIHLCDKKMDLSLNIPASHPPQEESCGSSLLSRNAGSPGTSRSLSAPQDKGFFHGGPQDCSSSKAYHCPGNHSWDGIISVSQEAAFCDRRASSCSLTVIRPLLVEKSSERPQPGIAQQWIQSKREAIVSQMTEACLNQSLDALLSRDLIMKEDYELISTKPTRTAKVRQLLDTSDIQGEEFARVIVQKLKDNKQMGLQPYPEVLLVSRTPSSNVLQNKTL
Description: Rat PK/PD studies: On arrival, all rats were housed in a plastic solid bottom cage in groups of 2–3 with access to food and water ad libitum and under a 12 h light–dark cycle. Male CD or Wistar Han rats (7–9 weeks old, Charles River UK Ltd.) were randomly allocated to treatment groups upon arrival. Female CD rats (7–8 weeks old on arrival, Charles River Ltd.) were placed into groups using a randomization schedule based on body weight prior to the study start. All animals were acclimatized for a minimum of one week prior to the experiment commencing.
Ex vivo stimulation of rat blood with L18-MDP for PD: PPD blood samples taken prior to PROTAC administration or at fixed timepoints post PROTAC administration through the course of the study, were treated ex vivo with 100 ng/mL L18-MDP (Invivogen) or vehicle (0.1% DMSO) and incubated for 4 h. Following centrifugation, plasma was collected for cytokines analysis as detailed in cytokines assay section. Additionally, RIPK2 levels were determined in PBMCs isolated from blood and where collected, in sampled colon tissue as described in the text.
(§5) For in vivo studies, RIPK2:tubulin ratios and cytokine levels from each individual experiment were analysed either using a One-way ANOVA with Dunnet’s post-test or a two way ANOVA using GraphPad Prism 5.0.4 to determine statistical significance with 95% confidence levels.

[1] = test system: L18-MDP-induced cytokine release; assay: In vivo L18-MDP acute inflammation model, serum cytokines (TNFα, IL-6, IL-8); set-up: species or system rat; cytokine level (fig 6a) / cytokine level (fig 6b) / cytokine level (fig 6c): unit not given here; settings: for cytokine level (fig 6a) / cytokine level (fig 6b) / cytokine level (fig 6c): serum, individual rats, beside L18-MDP control;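 as to cytokine level (fig 6a): time is length of PROTAC pretreatment before a 2 h L18-MDP challenge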;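 as to cytokine level (fig 6b): time is length of PROTAC pretreatment before a 2 h L18-MDP challenge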;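 as to cytokine level (fig 6c): time is length of PROTAC pretreatment before a 2 h L18-MDP challenge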
Description: (§6) In vivo L18-MDP administration to rodents results in an acute inflammatory response characterised by the rapid production of inflammatory cytokines. […]. […]. Blood concentrations of 6 and 7 tracked closely and dropped below the LLQ after 24 h.
(§7) . Cytokine levels were determined in serum generated from the terminal blood samples and in tissue lysates as detailed below.
(§8) Cytokine measurement assay: Cytokine levels were measured in rat plasma or rat PBMCs cell culture supernatants using rat V-Plex TNFα, in human plasma or human PBMCs cell culture supernatants with either TNFα tissue culture or 7-plex kit. Rat serum and tissues samples from the in vivo L18-MDP acute inflammation model were analyzed using the rat TNFα, Il-6 and IL-8 U-Plex kits. All kits provided by Meso Scale Discovery (MSD). Levels of cytokines spontaneously released from human colon biopsies cell culture supernatants were measured using Human IL-1 beta/IL-1F2 DuoSet ELISA (Bio-techne), Human IL-6 ELISA (Immunotools) and Human TNF-alpha DuoSet ELISA (Bio-techne). All samples were processed accordingly to the manufacturer’s instructions. The MSD plates were analyzed using the MSD sector imager 6000 plate reader and cytokines concentration (pg/ml) was obtained by using the MSD DISCOVERY WORKBENCH software version 4.0.12.1
as §5

[2] = test system: L18-MDP-induced cytokine release; assay: In vivo L18-MDP acute inflammation model, spleen cytokines; set-up: species or system rat; cytokine level (fig 6d) / cytokine level (fig 6e) / cytokine level (fig 6f): unit not given here; settings: for cytokine level (fig 6e) / cytokine level (fig 6f) / cytokine level (fig 6d): spleen, individual rats, beside L18-MDP control
Description: as §6, §7, §8, §5

Compound: CN[C@@H](C)C(=O)N[C@H](C(=O)N1CCC[C@H]1c1nc(C(=O)c2ccc(F)cc2)cs1)C1CCN(C(=O)c2cnc(N3CCN(CCOc4cc5ncnc(Nc6n[nH]c(C)c6C)c5cc4S(=O)(=O)C(C)(C)C)CC3)nc2)CC1 [PROTAC 4]
- mean intravenous clearance in rats, in words (Rat intravenous PK; in vivo, iv): less than a quarter of liver blood flow
- clearance (Rat intravenous PK; male, Sprague Dawley (PROTAC 4), Han Wistar (PROTAC 6), whole blood, IV bolus (4: 2 mg/kg; 6: 1 mg/kg)): 18 mL/min/kg
- half-life (Rat intravenous PK; male, Sprague Dawley (PROTAC 4), Han Wistar (PROTAC 6), whole blood, IV bolus (4: 2 mg/kg; 6: 1 mg/kg), read-out: Rat T½ (converted)): 6.9 h
- Vd (Rat intravenous PK; male, Sprague Dawley (PROTAC 4), Han Wistar (PROTAC 6), whole blood, IV bolus (4: 2 mg/kg; 6: 1 mg/kg), read-out: Rat Vdss): 11 L/kg

Compound: CN[C@@H](C)C(=O)N[C@H](C(=O)N1C[C@@H](NC(=O)c2cnc(N3CCN(CCCOc4cc5ncnc(Nc6n[nH]c(C)c6C)c5cc4S(=O)(=O)C(C)(C)C)CC3)cn2)C[C@H]1C(=O)Nc1c(F)cccc1F)C(C)(C)C [PROTAC 6]
- change in cIAP2 protein levels, in words (cIAP2): no change in protein levels
- change in XIAP protein levels, in words (XIAP): no change in protein levels
- RIPK2 level in colon (fig 5f) (RIPK2; 0.05 mg/kg, individual rats 1-4): 0.0091 and 0.0088 and 0.0071 and 0.0105
- RIPK2 level in colon (fig 5f) (RIPK2; 0.5 mg/kg, individual rats 5-8): 0.0034 and 0.0025 and 0.0038 and 0.0043
- RIPK2 in terminal colon samples, in words (RIPK2; rat, 0.05 and 0.5 mg/kg QD SC, Western blot): significant degradation of RIPK2
- inhibition of serum cytokines ([1]; rat, 0.3 mg/kg SC, intravenous L18-MDP challenge, first three days): > 75%
- cytokine level (fig 6a) ([1]; time 6 h): 18.49 (2×) and 16.66 and 19.87 and 20.63
- cytokine level (fig 6b) ([1]; time 6 h): 1.67 and 2.89 and 2.19 and 1.98 and 1.58
- cytokine level (fig 6c) ([1]; time 6 h): 4 (3×) and 5 and 3
- cytokine level (fig 6a) ([1]; time 24 h): 17.80 and 19.20 and 17.38 and 15.28 and 17.94
- cytokine level (fig 6b) ([1]; time 24 h): 3.64 and 5.77 and 5.56 and 2.08 and 8.31
- cytokine level (fig 6c) ([1]; time 24 h): 1 (3×) and 2 (2×)
- cytokine level (fig 6a) ([1]; time 72 h): 19.88 and 25.30 and 22.33 and 26.08 and 26.21
- cytokine level (fig 6b) ([1]; time 72 h): 18.18 and 42.78 and 20.80 and 21.32 and 12.42
- cytokine level (fig 6c) ([1]; time 72 h): 19 and 9 and 13 and 7 and 24
- cytokine level (fig 6a) ([1]; time 240 h): 63.85 and 82.37 and 43.93 and 24.16 and 36.40
- cytokine level (fig 6b) ([1]; time 240 h): 64.23 and 50.00 and 38.00 and 38.38 and 36.37
- cytokine level (fig 6c) ([1]; time 240 h): 28 and 68 and 85 and 81 and 23
- cytokine level (fig 6a) ([1]; time 408 h): 65.92 and 78.49 and 54.66 and 71.18 and 46.33
- cytokine level (fig 6b) ([1]; time 408 h): 61.45 and 97.28 and 63.67 and 57.26 and 26.18
- cytokine level (fig 6c) ([1]; time 408 h): 30 and 38 and 69 and 58 and 40
- inhibition of TNFα and IL-8 in spleen, in words ([2]; rat, 0.3 mg/kg SC, intravenous L18-MDP challenge): short-lived and returned to basal levels by the third day post-dose
- cytokine level (fig 6e) ([2]; time 6 h): 14.13 and 34.14 and 14.02 and 19.73 and 14.97
- cytokine level (fig 6f) ([2]; time 6 h): 4.45 and 4.35 and 4.34 and 3.21 and 3.53
- cytokine level (fig 6d) ([2]; time 6 h): 2.77 (2×) and 3.58 and 3.26 and 3.28
- cytokine level (fig 6e) ([2]; time 24 h): 45.7 and 38.46 and 58.3 and 40.91 and 52.98
- cytokine level (fig 6f) ([2]; time 24 h): 4.32 and 2.78 and 5.01 and 2.54 and 9.72
- cytokine level (fig 6d) ([2]; time 24 h): 4.43 and 2.62 and 4.18 and 4.64 and 5.01
- cytokine level (fig 6e) ([2]; time 72 h): 111.22 and 59.85 and 73.1 and 99 and 52.1
- cytokine level (fig 6f) ([2]; time 72 h): 75.27 and 51.34 and 57.62 and 94.65 and 61.7
- cytokine level (fig 6d) ([2]; time 72 h): 45 and 42.87 and 29.6 and 47.75 and 33.69
- cytokine level (fig 6e) ([2]; time 240 h): 97.65 and 76.46 and 96.01 and 80.21 and 59.48
- cytokine level (fig 6f) ([2]; time 240 h): 72.27 and 99.15 and 93.27 and 64.45 and 48.45
- cytokine level (fig 6d) ([2]; time 240 h): 65.15 and 73.34 and 58.46 and 1.72 and 47.46
- cytokine level (fig 6e) ([2]; time 408 h): 146.67 and 133.23 and 180.63 and 211.01 and 68.17
- cytokine level (fig 6f) ([2]; time 408 h): 79.92 and 69.55 and 103.81 and 98.05 and 47.92
- cytokine level (fig 6d) ([2]; time 408 h): 41.62 and 64.64 and 76.25 and 77.33 and 37.06
